Results on 5 molecules are retold here after ChEMBL document CHEMBL1157248, “Polar steroidal compounds from the far eastern starfish Henricia leviuscula” (J Nat Prod, 2006).

Common to all, as to format: cell-based, Erythrocyte
Series [1] can be described thus: Toxicity in mouse erythrocytes assessed as hemolysis at 0.08 mM during 5 mins. The settings on record: read-out: Activity.
Series [2] in a line: Toxicity in mouse erythrocytes assessed as hemolysis.
Series [3] can be described thus: Toxicity in mouse erythrocytes assessed as hemolysis at 0.1 mM during 5 mins.

The HC50 is the concentration giving 50% haemolysis.

In the case of `CO[C@@H]1[C@@H](OC)[C@H](O[C@@H]2C=C3[C@H](O)C[C@@]4(O)[C@@H]5[C@@H](O)[C@H](O)[C@H]([C@H](C)/C=C/[C@@H](C)[C@H](C)CO)[C@@]5(C)CC[C@@H]4[C@@]3(C)CC2)OC[C@H]1O` [HENRICIOSIDE H2], the hemolysis at 5 min, 80 µM in series [1] came to 70%. The HC50 in series [2] was determined as 120 µM.

As to `CO[C@@H]1[C@@H](OC)[C@H](O[C@@H]2C=C3[C@H](O)C[C@@]4(O)[C@@H]5[C@@H](O)[C@H](O)[C@H]([C@H](C)/C=C/C(C)CCO)[C@@]5(C)CC[C@@H]4[C@@]3(C)CC2)OC[C@H]1O` (some centres undefined), the hemolysis at 5 min, 80 µM in series [1] amounted to 100%. Moreover, in series [2], the HC50 turned out to be 80 µM.

As to `C[C@H](CC[C@@H](O)C(C)(C)O)[C@H]1C[C@@H](O)[C@@H]2[C@]1(C)CC[C@@H]1[C@@]3(C)CC[C@H](O)[C@H](O)[C@@H]3[C@H](O)C[C@]12O`, the Activity result in series [3] (erythrocyte, 5 min, 100 µM) is “Not Active”. For the same molecule, the concentration for 50% haemolysis (HC50) in series [2] is 210 µM. Turning to `CO[C@H]1[C@H](O[C@H]2CC[C@@]3(C)[C@H]([C@H]2O)[C@H](O)C[C@]2(O)[C@@H]3CC[C@]3(C)[C@@H]([C@H](C)CC[C@H](O[C@@H]4O[C@@H](CO)[C@H](O)[C@H]4O)C(C)C)C[C@H](O)[C@H]32)OC[C@@H](OC)[C@@H]1O` [LAEVIUSCOLOSIDE G], the HC50 in series [2] was found to be 130 µM. On to `CC(C)[C@@H](O)CC[C@@H](C)[C@H]1C[C@@H](O)[C@@H]2[C@]1(C)CC[C@@H]1[C@@]3(C)CC[C@H](O)[C@H](O)[C@@H]3[C@H](O)C[C@]12O`, for which the hemolysis at 5 min, 100 µM in series [3] (mouse erythrocytes, read-out: Activity) is 100%. Moreover, the HC50 in series [2] was 53 µM.
